The results in this text go back to US20090197880A1 (Genelabs Technologies, Inc., priority 2007, published 2009).

The first test is described as follows: HCV replicon assay (luciferase) in ET (Huh-lucubineo-ET) cell line. The test is classed as cell-based. The settings on record: Hepatitis C virus; tested at 5 μM; inhibition of replication relative to no compound control; ET replicon cells, luciferase 48-72 hours. On the technique in general: In antiviral work, replicon cells carry a viral genome segment that copies itself.
Regarding `Fc1ccccc1-c1nc2cnn(Cc3nc(-c4ccc(Cl)cc4)no3)cc-2n1` [Compound 113, 5-[3-(4-Chloro-phenyl)-[1,2,4]oxadiazol-5-ylmethyl]-2-(2-fluoro-phenyl)-5H-imidazo[4,5-d]pyridazine], the inhibition at 5 µM is 24.9%.

The test is the same for the next values; noted with them: Hepatitis C virus; tested at 10 μM; inhibition of replication relative to no compound control; ET replicon cells, luciferase 48-72 hours; read-out: % inhition at 10 μM.
`FC(F)(F)c1ccc(-c2cc(Cn3cc4nc(-c5ccc6[nH]ccc6c5)nc-4cn3)on2)c(C(F)(F)F)c1` [Compound 139, 5-[3-(2,4-Bis-trifluoromethyl-phenyl)-isoxazol-5-ylmethyl]-2-(1H-indol-5-yl)-5H-imidazo[4,5-d]pyridazine]: the inhibition at 10 µM came out at 51.1%. `COc1ccc(-c2cc(Cn3cc4nc(-c5cccc(F)c5F)nc-4cn3)on2)c(OC)c1` [Compound 294, 2-(2,3-Difluoro-phenyl)-5-[3-(2,4-dimethoxy-phenyl)-isoxazol-5-ylmethyl]-5H-imidazo[4,5-d]pyridazine]: the inhibition at 10 µM came to 50%.

Take `Fc1cccc(-c2nc3cnn(Cc4cc(-c5ccc(C(F)(F)F)cc5)no4)cc-3n2)c1F` [Compound 202, 2-(2,3-Difluoro-phenyl)-5-[3-(4-trifluoromethyl-phenyl)-isoxazol-5-ylmethyl]-5H-imidazo[4,5-d]pyridazine]: the inhibition at 10 µM is 99.2%. Take `C=Cc1ccc(-c2cc(Cn3cc4nc(-c5cccc(F)c5F)nc-4cn3)on2)cc1` [Compound 338, 2-(2,3-Difluoro-phenyl)-5-[3-(4-vinyl-phenyl)-isoxazol-5-ylmethyl]-5H-imidazo[4,5-d]pyridazine]: the inhibition at 10 µM turned out to be 99.9%. Turning to `Fc1cccc(-c2nc3cnn(Cc4cc(-c5ccc(OC(F)F)cc5OC(F)F)no4)cc-3n2)c1F` [Compound 169, 5-[3-(2,4-Bis-difluoromethoxy-phenyl)-isoxazol-5-ylmethyl]-2-(2,3-difluoro-phenyl)-5H-imidazo[4,5-d]pyridazine], the inhibition at 10 µM stood at 83.6%. On the same count and under the same terms, the figure for `CCCCc1ccc(-c2cc(Cn3cc4nc(-c5cccc(F)c5F)nc-4cn3)on2)cc1` [Compound 201, 5-[3-(4-Butyl-phenyl)-isoxazol-5-ylmethyl]-2-(2,3-difluoro-phenyl)-5H-imidazo[4,5-d]pyridazine] is 100%. Same read-out and setting: the figure for `CN1CCN(c2ccc(-c3cc(Cn4cc5nc(-c6cccc(F)c6F)nc-5cn4)on3)cc2)CC1` [Compound 194, 2-(2,3-Difluoro-phenyl)-5-{3-[4-(4-methyl-piperazin-1-yl)-phenyl]-isoxazol-5-ylmethyl}-5H-imidazo[4,5-d]pyridazine] is 57.5%.

For the molecule `COc1ccc(-c2cc(Cn3cc4nc(-c5cccc(F)c5F)nc-4cn3)on2)c(C)c1` [Compound 171, 2-(2,3-Difluoro-phenyl)-5-[3-(4-methoxy-2-methyl-phenyl)-isoxazol-5-ylmethyl]-5H-imidazo[4,5-d]pyridazine], the inhibition at 10 µM was 91.5%. Turning to `Fc1cccc(CNc2nc3cnn(Cc4cc(-c5ccc(C(F)(F)F)cc5C(F)(F)F)no4)cc-3n2)c1F` [Compound 255, {5-[3-(2,4-Bis-trifluoromethyl-phenyl)-isoxazol-5-ylmethyl]-5H-imidazo[4,5-d]pyridazin-2-yl}-(2,3-difluoro-benzyl)-amine], the inhibition at 10 µM turned out to be 4.67%. Take `Fc1ccccc1-c1nc2cnn(Cc3nc(-c4ccc(Cl)cc4)no3)cc-2n1` [Compound 113, 5-[3-(4-Chloro-phenyl)-[1,2,4]oxadiazol-5-ylmethyl]-2-(2-fluoro-phenyl)-5H-imidazo[4,5-d]pyridazine]: the inhibition at 10 µM worked out at 41.7%. In the case of `COc1ccc(-c2cc(Cn3cc4nc(-c5cccc(F)c5F)nc-4cn3)on2)c(OC(F)(F)F)c1` [Compound 298, 2-(2,3-Difluoro-phenyl)-5-[3-(4-methoxy-2-trifluoromethoxy-phenyl)-isoxazol-5-ylmethyl]-5H-imidazo[4,5-d]pyridazine], the inhibition at 10 µM is 99.9%. Still for that read-out and setting: for `FC(F)(F)c1ccc(-c2cc(Cn3cc4nc(NC5CCc6ccccc65)nc-4cn3)on2)c(C(F)(F)F)c1` (stereo not drawn) [Compound 259] the value was 50.6%.

As to `COc1ccc(-c2cc(Cn3cc4nc(-c5cccc(F)c5F)nc-4cn3)on2)cc1` [Compound 221, 2-(2,3-Difluoro-phenyl)-5-[3-(4-methoxy-phenyl)-isoxazol-5-ylmethyl]-5H-imidazo[4,5-d]pyridazine], the inhibition at 10 µM is 98.9%. Still for that read-out and setting: for `CC(=O)c1ccc(-c2cc(Cn3cc4nc(-c5cccc(F)c5F)nc-4cn3)on2)cc1` [Compound 290, 1-(4-{5-[2-(2,3-Difluoro-phenyl)-imidazo[4,5-d]pyridazin-5-ylmethyl]-isoxazol-3-yl}-phenyl)-ethanone] the value was 95.2%; for `Oc1ccccc1-c1nc2cnn(Cc3cc(-c4ccc(C(F)(F)F)cc4C(F)(F)F)no3)cc-2n1` [Compound 134, 2-{5-[3-(2,4-Bis-trifluoromethyl-phenyl)-isoxazol-5-ylmethyl]-5H-imidazo[4,5-d]pyridazin-2-yl}-phenol], 0.51%. On to `FC(F)(F)c1ccc(-c2cc(Cn3cc4nc(N5CCc6ccccc6C5)nc-4cn3)on2)c(C(F)(F)F)c1` [Compound 257, 2-{5-[3-(2,4-Bis-trifluoromethyl-phenyl)-isoxazol-5-ylmethyl]-5H-imidazo[4,5-d]pyridazin-2-yl}-1,2,3,4-tetrahydro-isoquinoline], for which the inhibition at 10 µM came to 0.87%. Same read-out and setting: the figure for `O=C(O)c1ccc(COc2ccc(-c3cc(Cn4cc5nc(-c6cccc(F)c6F)nc-5cn4)on3)cc2)cc1` [Compound 162, 4-(4-{5-[2-(2,3-Difluoro-phenyl)-imidazo[4,5-d]pyridazin-5-ylmethyl]-isoxazol-3-yl}-phenoxymethyl)-benzoic Acid] is 66.9%; for `Fc1cccc(-c2nc3cnn(Cc4cc(-c5cc(C(F)(F)F)cc(C(F)(F)F)c5)no4)cc-3n2)c1F` [Compound 164, 5-[3-(3,5-Bis-trifluoromethyl-phenyl)-isoxazol-5-ylmethyl]-2-(2,3-difluoro-phenyl)-5H-imidazo[4,5-d]pyridazine] it is 90.1%. `Fc1cccc(-c2nc3cnn(Cc4cc(-c5ccc(OCCCN6CCOCC6)cc5)no4)cc-3n2)c1F` [Compound 273, 2-(2,3-Difluoro-phenyl)-5-{3-[4-(3-morpholin-4-yl-propoxy)-phenyl]-isoxazol-5-ylmethyl}-5H-imidazo[4,5-d]pyridazine]: the inhibition at 10 µM was determined as 94%. Consider `FC(F)(F)c1ccc(-c2cc(Cn3cc4nc(-c5ccccn5)nc-4cn3)on2)c(C(F)(F)F)c1` [Compound 231, 5-[3-(2,4-Bis-trifluoromethyl-phenyl)-isoxazol-5-ylmethyl]-2-pyridin-2-yl-5H-imidazo[4,5-d]pyridazine], for which the inhibition at 10 µM came to 42%. For the molecule `Fc1cccc(-c2nc3cnn(Cc4cc(-c5ccc(C(F)F)cc5)no4)cc-3n2)c1F` [Compound 336, 5-[3-(4-Difluoromethyl-phenyl)-isoxazol-5-ylmethyl]-2-(2,3-difluoro-phenyl)-5H-imidazo[4,5-d]pyridazine], the inhibition at 10 µM was found to be 99.7%. On to `OCCCOc1ccc(-c2cc(Cn3cc4nc(-c5cccc(F)c5F)nc-4cn3)on2)cc1` [Compound 193, 3-(4-{5-[2-(2,3-difluoro-phenyl)-imidazo[4,5-d]pyridazin-5-ylmethyl]-isoxazol-3-yl}-phenoxy)-propan-1-ol], for which the inhibition at 10 µM amounted to 76.3%. With `Fc1cccc(-c2nc3cnn(Cc4cc(-c5ccc(-c6nnn[nH]6)cc5)no4)cc-3n2)c1F` [Compound 328, 2-(2,3-Difluoro-phenyl)-5-{3-[4-(1H-tetrazol-5-yl)-phenyl]-isoxazol-5-ylmethyl}-5H-imidazo[4,5-d]pyridazine], the inhibition at 10 µM was 55.5%. Take `FC(F)(F)c1ccc(-c2cc(Cn3cc4nc(NCCc5ccccc5)nc-4cn3)on2)c(C(F)(F)F)c1` [Compound 256, {5-[3-(2,4-Bis-trifluoromethyl-phenyl)-isoxazol-5-ylmethyl]-5H-imidazo[4,5-d]pyridazin-2-yl}-phenethyl-amine]: the inhibition at 10 µM stood at 9.34%. Still for that read-out and setting: for `Fc1cccc(-c2nc3cnn(Cc4cc(-c5ccc(C(F)(F)F)nc5)no4)cc-3n2)c1F` [Compound 205, 2-(2,3-Difluoro-phenyl)-5-[3-(6-trifluoromethyl-pyridin-3-yl)-isoxazol-5-ylmethyl]-5H-imidazo[4,5-d]pyridazine] the value was 98.7%.

`Fc1cccc(-c2nc3cnn(Cc4cc(-c5ccc6c(c5)OC(F)(F)O6)no4)cc-3n2)c1F` [Compound 167, 5-[3-(2,2-Difluoro-benzo[1,3]dioxol-5-yl)-isoxazol-5-ylmethyl]-2-(2,3-difluoro-phenyl)-5H-imidazo[4,5-d]pyridazine]: the inhibition at 10 µM worked out at 93.1%.

Take `Fc1ccccc1-c1nc2cnn(Cc3cc(-c4ccc(Br)cn4)no3)cc-2n1` [Compound 289, 5-[3-(5-Bromo-pyridin-2-yl)-isoxazol-5-ylmethyl]-2-(2-fluoro-phenyl)-5H-imidazo[4,5-d]pyridazine]: the inhibition at 10 µM was 57.3%. Still for that read-out and setting: for `Fc1cccc(-c2nc3cnn(Cc4cc(-c5ccc(Br)cc5C(F)(F)F)no4)cc-3n2)c1F` [Compound 293, 5-[3-(4-Bromo-2-trifluoromethyl-phenyl)-isoxazol-5-ylmethyl]-2-(2,3-difluoro-phenyl)-5H-imidazo[4,5-d]pyridazine] the value was 99.7%.

As to `Fc1ccccc1-c1nc2cnn(Cc3cc(-c4ccc(Br)cc4)no3)cc-2n1` [Compound 285, 5-[3-(4-Bromo-phenyl)-isoxazol-5-ylmethyl]-2-(2-fluoro-phenyl)-5H-imidazo[4,5-d]pyridazine], the inhibition at 10 µM came out at 90.1%. On the same count and under the same terms, the figure for `Fc1cccc(-c2nc3cnn(Cc4cc(-c5ccc(Br)cc5)no4)cc-3n2)c1F` [Compound 200, 5-[3-(4-bromo-phenyl)-isoxazol-5-ylmethyl]-2-(2,3-difluoro-phenyl)-5H-imidazo[4,5-d]pyridazine] is 99.4%; for `Fc1cccc(-c2nc3cnn(Cc4onc(-c5ccc(C(F)(F)F)cc5C(F)(F)F)c4Br)cc-3n2)c1F` [Compound 292, 5-[3-(2,4-Bis-trifluoromethyl-phenyl)-4-bromo-isoxazol-5-ylmethyl]-2-(2,3-difluoro-phenyl)-5H-imidazo[4,5-d]pyridazine] it is 64.1%; for `Fc1cccc(-c2nc3cnn(Cc4cc(-c5ccc(-c6cnoc6)cc5C(F)(F)F)no4)cc-3n2)c1F` [Compound 321, 2-(2,3-Difluoro-phenyl)-5-[3-(4-isoxazol-4-yl-2-trifluoromethyl-phenyl)-isoxazol-5-ylmethyl]-5H-imidazo[4,5-d]pyridazine] it is 82.5%.
